Results from patent US20170281710A1, “USE OF INHIBITORS OF BINDING BETWEEN A PAR-1 RECEPTOR AND ITS LIGANDS FOR THE TREATMENT OF GLIOMA” (University of Rochester, priority 2013, published 2017).
Entries after “also recorded” stand apart in the source; their conditions may differ.

Tests used:
[1] = tested on: several human and mouse cell lines; settings: literature; cited from earlier work
[2] = tested on: A2B5+ glioma TPCs (GCL) isolated from GBM-derived cell lines; assay: in vitro expansion of A2B5+ glioma TPCs (GCL), cell count after escalating doses; format: cell-based, human; settings: for concentration at which a significant decrease in number of A2B5+ TPCs was observed: escalating doses, vs vehicle; for effect on growth / number (in vitro expansion) of A2B5+ glioma TPCs: serum-free media with FGF, EGF, PDGF, 4 days after administration, vs DMSO vehicle
Protocol: After dissociation, unsorted and A2B5 selected primary cells derived from tumor samples were seeded in a 6 well cell suspension plate at 100,000-200,000 cells/ml in DMEM/F12/N1 media containing FGF, EGF and PDGF (20 ng/ml) as previously described (Nunes et al., “Identification and Isolation of Multipotential Neural Progenitor Cells from the Subcortical White Matter of the Adult Human Brain,” Nat Med 9:439-447 (2003), which is hereby incorporated by reference in their entirety). Growth factors and media were renewed 3 times per week. […] The cells were tumorigenic in vivo after transplantation into the brains of immunodeficient mice, in which they generated tumors that recapitulated the histological and phenotypic features of the parental GBM.
(§1) Dabigatran etexilate (Pradaxa) was obtained as 150 mg capsules from Boehringer Ingelheim (Ingelheim, Germany) for in vivo experiments. Each capsule was freshly dissolved in 4 ml of acidic water to yield 37.5 mg/ml. Dabigatran etexilate was dosed depending of the body weight of the mouse, twice a day, using oral gavage. For in vitro analysis, the chemical compound dabigatran etexilate (BIER-1048) was purchased from Cedarlane USA (S2154-5 mg) and dissolved in dimethylsulfoxide (DMSO) following manufacturer's instructions.
(§2) The selective PAR-1 antagonist SCH79797 was purchased from Tocris Bioscience (Ellisville, Mo., USA) and dissolved in dimethylsulfoxide (DMSO) following manufacturer's instructions. The selective oral PAR-1 inhibitor SCH 530348 (Vorapaxar) was purchased from Axon medchem (Axon 1755) and reconstituted following manufacturer's instructions.
(§3) The various physiological and pathophysiological effects exerted by PAR-1 activation have led to the development of multiple selective PAR-1 antagonists over the years (Garcia-Lopez et al., “Thrombin-Activated Receptors: Promising Targets for Cancer Therapy?” Curr Med Chem 17:109-128 (2010), which is hereby incorporated by reference in its entirety). […] On that basis, it was further asked whether pharmacological inhibition of PAR-1 can slow the growth of glioma cells and A2B5^+ TPCs. Adherent glioma cells grown in 10% Serum (U87, U251) and A2B5^+ TPCs derived from primary GBM cell lines cultured in SFM were subjected to escalating doses of the PAR-1 antagonists SCH-79797.
(§4) Indeed, SCH-530348 represents currently the most advanced and orally available specific PAR-1 antagonist, and has been evaluated in two large phase III clinical trials in patients with cardiovascular disease. […] To examine its effect on glioma cells and TPCs, SCH-530348 was administrated with escalating doses to glioma cells following the same paradigm previously described. […] Importantly, normal adult astrocytes were not affected by SCH-530348 administration (FIG. 6C).
(§5) Given the availability of already approved and relatively safe drugs by which the thrombin may be antagonized, the effect of pharmacological inhibition of thrombin using the oral inhibitor dabigatran etexilate (dabigatran) in vitro was next examined. Dabigatran (marketed as Pradaxa) is an oral inhibitor of thrombin, approved for use in patients with or at risk of thrombotic disorders (Lee and Ansell, “Direct Thrombin Inhibitors,” Br J Clin Pharmacol 72:581-592 (2011); Stangier, “Clinical Pharmacokinetics and Pharmacodynamics of the Oral Direct Thrombin Inhibitor Dabigatran Etexilate,” Clin Pharmacokinet 47:285-295 (2008), which are hereby incorporated by reference in their entirety). […] To examine whether dabigatran treatment might suppress the growth of glial neoplasms, glioma cells and TPCs were treated with escalating doses of dabigatran and counted 4 days after drug administration.

[3] = tested on: adherent glioma cells (U87, U251); assay: in vitro expansion of adherent glioma cells cultured with 10% serum; format: cell-based, human; settings: for effect on growth / number of adherent glioma cells (U87, U251): 4 days after administration, vs DMSO vehicle; for concentration at which a significant decrease in number of adherent glioma cells was observed: escalating doses
Protocol: as §1, §2, §3, §4, §5

[4] = tested on: normal astrocytes derived from the adult human brain; assay: growth of normal adult astrocytes in vitro; format: cell-based; settings: 4 days after administration
[5] = tested on: normal astrocytes derived from the fetal human brain; assay: growth of normal fetal astrocytes in vitro; format: cell-based; settings: for effect on growth of normal fetal astrocytes / concentrations at which growth of normal fetal astrocytes is slightly decreased: 4 days after administration
angiogenesis = settings: literature; cited from earlier work
[6] = stable patients with a history of myocardial infarction; literature; cited from earlier work
[7] = literature; cited from earlier work
[8] = tested on: A2B5+ glioma TPCs (GCL) subcutaneous xenograft; assay: subcutaneous heterotopic A2B5+ glioma TPC xenograft, tumor volume; format: in vivo, immunodeficient NOG mice; settings: 37.5 mg/kg twice daily, oral gavage, starting 11 days post-subcutaneous injection, NOG mice
Protocol: as §1
Glioma cells and/or A2B5^+ TPCs (1-4E^+06 cells/animal) were collected, resuspended in 75 μl of media, and mixed (1:1) with Matrigel (9.8 mg/ml), prior to subcutaneous injection (150 μl, final volume) into the flanks of immunodeficient NOG mice (5-8 weeks) (1-4E^+06 cells/animal). Subcutaneous tumor growth was measured every other day morphometrically using vernier calipers, and tumor volumes were estimated according to the formula a^2b/2, where a and b are the shorter and longer diameters of the tumor, respectively. […] The remaining mice were gavaged at the same times with vehicle control (acidic water). […]
To translate these findings into a clinically relevant approach, the anti-tumor activity of dabigatran was further evaluated in vivo. […] Tumor volume was then measured every other day using vernier calipers. […]

breast carcinoma cells = settings: literature; cited from earlier work

CC(C)c1ccc(Cn2ccc3c4c(N)nc(NC5CC5)nc4ccc32)cc1 [SCH79797, N3-Cyclopropyl-7-[[4-(1-Methylethyl)Phenyl]Methyl]-7H-Pyrrolo[3,2-f]Quinazoline-1,3-Diamine]
effect on proliferation, migration and growth of several human and mouse cell lines [1]: showed anti-proliferative effects, blocked cell migration and growth
concentration at which a significant decrease in number of A2B5+ TPCs was observed [2]: ≥ 0.1 µM
effect on growth / number (in vitro expansion) of A2B5+ glioma TPCs [2]: potent inhibitors of glioma growth in vitro; also recorded: suppressed the growth and proliferation of glioma TPCs in vitro; also recorded: significantly decreases the number of GCL and glioma cells in a dose dependent manner
effect on growth / number (in vitro expansion) of A2B5+ glioma TPCs ([2]; listed as SCH-79797): significant concentration dependent inhibition of cell growth
effect on growth / number of adherent glioma cells (U87, U251) [3]: significantly decreases the number of GCL and glioma cells in a dose dependent manner
effect on growth / number of adherent glioma cells (U87, U251) ([3]; listed as SCH-79797): significant concentration dependent inhibition of cell growth
concentration at which a significant decrease in number of adherent glioma cells was observed [3]: ≥ 0.1 µM
effect on growth of normal adult astrocytes [4]: did not affect the growth of normal fetal and adult astrocytes
effect on growth of normal adult astrocytes ([4]; listed as SCH-79797): no significant differences
effect on growth of normal fetal astrocytes [5]: did not affect the growth of normal fetal and adult astrocytes
effect on growth of normal fetal astrocytes ([5]; listed as SCH-79797): able to slow the growth of normal fetal astrocytes
concentration at which a significant decrease in number of fetal astrocytes was observed ([5]; escalating doses): ≥ 0.5 µM
anti-angiogenic activity in vivo (angiogenesis): potent anti-angiogenic in vivo

CCOC(=O)N[C@@H]1CC[C@@H]2[C@@H](C1)C[C@H]1C(=O)O[C@H](C)[C@H]1[C@H]2/C=C/c1ccc(-c2cccc(F)c2)cn1 [SCH530348, Vorapaxar]
concentration at which a significant decrease in number of A2B5+ TPCs was observed [2]: ≥ 5 µM
effect on growth / number (in vitro expansion) of A2B5+ glioma TPCs [2]: potent inhibitors of glioma growth in vitro; also recorded: suppressed the growth and proliferation of glioma TPCs in vitro; also recorded: significantly decreases the number of GCL and glioma cells in a dose dependent manner
effect on growth / number (in vitro expansion) of A2B5+ glioma TPCs ([2]; listed as SCH-530348): significantly reduced the growth
effect on growth / number of adherent glioma cells (U87, U251) [3]: significantly decreases the number of GCL and glioma cells in a dose dependent manner
effect on growth / number of adherent glioma cells (U87, U251) ([3]; listed as SCH-530348): significant decrease in the number of glioma cells
concentration at which a significant decrease in number of adherent glioma cells was observed [3]: 25 µM
effect on growth of normal adult astrocytes [4]: did not affect the growth of normal adult astrocytes
effect on growth of normal adult astrocytes ([4]; listed as SCH-530348): not affected
concentrations at which growth of normal fetal astrocytes is slightly decreased [5]: > 0.5 µM
effect on growth of normal fetal astrocytes [5]: slightly decreases the growth of normal fetal astrocytes
major cardiovascular thrombotic events [6]: significantly reduced major cardiovascular thrombotic events
oral bioavailability [7]: excellent
safety [7]: excellent

CCCCCCOC(=O)NC(=N)c1ccc(NCc2nc3cc(C(=O)N(CCC(=O)OCC)c4ccccn4)ccc3n2C)cc1 [dabigatran etexilate]
concentration at which a significant decrease in number of A2B5+ TPCs was observed [2]: 5 µM
effect on growth / number (in vitro expansion) of A2B5+ glioma TPCs [2]: suppressed the growth and proliferation of glioma TPCs in vitro
effect on growth / number (in vitro expansion) of A2B5+ glioma TPCs ([2]; listed as Dabigatran etexilate): significantly decreases the number of GCL and glioma cells in a dose dependent manner
effect on growth / number (in vitro expansion) of A2B5+ glioma TPCs ([2]; listed as dabigatran): decreased in vitro expansion in a dose dependent manner; also recorded: potent inhibitors of glioma growth in vitro
effect on tumor volumes compared to vehicle controls [8]: significant reduction in tumor volumes; also recorded: significantly suppressed glioma growth; also recorded: significantly reduced tumor volumes
effect on tumor volumes compared to vehicle controls ([8]; listed as Pradaxa): significantly reduce the tumor volumes
effect on growth / number of adherent glioma cells (U87, U251) ([3]; listed as Dabigatran etexilate): significantly decreases the number of GCL and glioma cells in a dose dependent manner
effect on growth / number of adherent glioma cells (U87, U251) ([3]; listed as dabigatran): decreased in vitro expansion in a dose dependent manner
concentration at which a significant decrease in number of adherent glioma cells was observed [3]: ≥ 10 µM
effect on growth of normal adult astrocytes ([4]; listed as Dabigatran etexilate): did not affect the growth of normal adult astrocytes
effect on growth of normal adult astrocytes ([4]; listed as dabigatran): not significantly affected
breast cancer progression (breast carcinoma cells): reduce breast cancer progression
invasiveness of breast carcinoma cells in mice (breast carcinoma cells): inhibits the invasiveness of breast carcinoma cells
concentrations at which growth of normal fetal astrocytes is slightly decreased [5]: > 0.5 µM
effect on growth of normal fetal astrocytes ([5]; listed as Dabigatran etexilate): slightly decreases the growth of normal fetal astrocytes
effect on growth of normal fetal astrocytes ([5]; listed as dabigatran): not significantly affected
